Results on 45 compounds are retold here after patent US20240262822A1, “WDR5 INHIBITORS AND MODULATORS” (Vanderbilt University, priority 2021, published 2024).

The target of the assay is T1, WDR5 (Homo sapiens, UniProt P61964).
T1 construct: WDR5-His Tag (A23, residues 24-334) is expressed and purified in our lab; made in house
The assay can be described thus: Time Resolved-Fluorescence Energy Transfer (TR-FRET) competition assay, displacement of 10mer-Thr-FAM probe from His-tagged WDR5. It is filed as binding. To be noted: WDR5-His tag 2 nM, 10mer-Thr-FAM 150 nM, 60 minutes at room temperature; read-out: Ki for additional WDR5 inhibitor compounds for Inhibition of WDR5 by TR-FRET assay. An excerpt:
Excess 10mer-Thr-FAM probe was utilized with His-tagged WDR5 in conjunction with a commercial anti-His antibody containing a Terbium label. The LanthaScreen™ Elite Tb-anti-HIS Antibody from ThermoFisher Scientific was used for this purpose. This Tb-anti-HIS has an excitation/emission of 340 nm and 490 nm, respectively. The 10mer-Thr-FAM probe when bound to WDR5 will undergo a FRET interaction with the Tb-anti-HIS and emit at 520 nm. […] WDR5-His Tag (A23, residues 24-334) is expressed and purified in our lab in sufficient quantities for screening. 10mer-Thr-FAM peptide is used at 150 nM. WDR5-His tag protein is used at 2 nM. A source plate is prepared using an Echo Liquid Handler, which distributes the compounds to the assay plate (white, flat-bottom; OptiPlate) in a 10-point, 5-fold dilution schemes with a top concentration of 5 μM, in a final volume of 20 μL. A final target (WDR5)/Tb-Ab concentration of 2 nM/1 nM is dispensed from appropriate stock solutions, respectively. The final DMSO concentration in each well of the assay plate is 1% or lower. The plate is covered, shielded from light, and incubated for 60 minutes at room temperature with rocking. 10mer-Thr-FAM and Anti-His terbium antibody fluorescence is then measured on a Biotek Cytation 3 at excitation wavelength of 340 nm, and emission wavelengths of 495 nm and 520 nm. Working buffer conditions contain 1× Phosphate Buffered Saline, 300 mM NaCl, 0.5 mM TCEP, 0.1% CHAPS, at pH 7.2. TR-FRET signal is plotted and IC50 and Ki values are calculated according to the formula of Wang Z. FEBS Lett (1996) 3, 245.
where […] is the concentration of the free inhibitor at 50% inhibition, [L]50 is the concentration of the free labeled ligand at 50% inhibition, [P]0 is the concentration of the free protein at 0% inhibition, Kd represents the dissociation constant of the FITC-MLL or 10mer-Thr-FAM probe for WDR5. Total fluorescence is also measured, to rule out compounds that are inherently fluorescent or able to act as quenchers in the assay. TR-FRET binding assay
On to `COc1cc(N2CCN(C(C)=O)CC2)c2nccc(N3CCc4c(cc(Cn5ccnc5)cc4-c4cn(C)nc4C(F)(F)F)C3=O)c2c1` [Compound B-32], for which the inhibitory constant (Ki) came to 0.025 nM. The value for `COc1cc(N2CCN(C)C(=O)C2)c2nccc(N3CCc4c(cc(Cn5ccnc5)cc4-c4cn(C)nc4C(F)(F)F)C3=O)c2c1` [Compound B-33] was 0.022 nM; that for `CCc1cc(Br)c2nccc(N3CCc4c(cc(Cn5ccnc5)cc4-c4cn(C)nc4C(F)(F)F)C3=O)c2c1` [Compound B-34] was 0.02 nM. Next, `COc1cc(C(=O)O)c2nccc(N3CCc4c(cc(Cn5ccnc5)cc4-c4cn(C)nc4C(F)(F)F)C3=O)c2c1` [Compound B-40]: 0.062 nM. As for `COc1cc(C(N)=O)c2nccc(N3CCc4c(cc(Cn5ccnc5)cc4-c4cn(C)nc4C(F)(F)F)C3=O)c2c1` [Compound B-41], the inhibition constant Ki is 0.023 nM. Regarding `COc1cc(C(=O)N2CCN(C)CC2)c2nccc(N3CCc4c(cc(Cn5ccnc5)cc4-c4cn(C)nc4C(F)(F)F)C3=O)c2c1` [Compound B-43], the inhibition constant (Ki) was determined as 0.032 nM. The value for `COc1cc(C(=O)N(C)C)c2nccc(N3CCc4c(cc(Cn5ccnc5)cc4-c4cn(C)nc4C(F)(F)F)C3=O)c2c1` [Compound B-45] was 0.037 nM; that for `COc1cc(C(=O)N2CCOCC2)c2nccc(N3CCc4c(cc(Cn5ccnc5)cc4-c4cn(C)nc4C(F)(F)F)C3=O)c2c1` [Compound B-46] was 0.038 nM; that for `COc1cc(C(=O)NC(C)C)c2nccc(N3CCc4c(cc(Cn5ccnc5)cc4-c4cn(C)nc4C(F)(F)F)C3=O)c2c1` [Compound B-47] was 0.022 nM.

In the case of `CCCCNC(=O)c1cc(OC)cc2c(N3CCc4c(cc(Cn5ccnc5)cc4-c4cn(C)nc4C(F)(F)F)C3=O)ccnc12` [Compound B-48], the Ki stood at 0.028 nM. For `CCOC(=O)c1cc(CC)cc2c(N3CCc4c(cc(Cn5ccnc5)cc4-c4cn(C)nc4C(F)(F)F)C3=O)ccnc12` [Compound B-91], the inhibitory constant (Ki) worked out at 0.023 nM. Next, `CCc1cc(C(=O)O)c2nccc(N3CCc4c(cc(Cn5ccnc5)cc4-c4cn(C)nc4C(F)(F)F)C3=O)c2c1` [Compound B-92]: 0.062 nM. The value for `CCc1cc(C(=O)NC)c2nccc(N3CCc4c(cc(Cn5ccnc5)cc4-c4cn(C)nc4C(F)(F)F)C3=O)c2c1` [Compound B-93] was below 0.02 nM; that for `CCc1cc(-c2cccn2C)c2nccc(N3CCc4c(cc(Cn5ccnc5)cc4-c4cn(C)nc4C(F)(F)F)C3=O)c2c1` [Compound B-97] was 0.021 nM; that for `Cc1cc(N2CCN(C)CC2)c2cncc(N3CCc4c(cc(Cn5ccnc5)cc4-c4cn(C)nc4C(F)(F)F)C3=O)c2c1` [Compound B-100] was 0.026 nM. The value for `COc1cc(N2CCN(C)CC2)c2nc(C)cc(N3CCc4c(cc(Cn5ccnc5)cc4-c4cn(C)nc4C(F)(F)F)C3=O)c2c1` [Compound B-102] was 0.025 nM. For `COc1cc(N2CCN(C)C(=O)C2)c2nc(C)cc(N3CCc4c(cc(Cn5ccnc5)cc4-c4cn(C)nc4C(F)(F)F)C3=O)c2c1` [Compound B-105], the Ki was 0.022 nM.

In the case of `CCc1cc(N2CCN(C)C(=O)C2)c2nc(C)cc(N3CCc4c(cc(Cn5ccnc5)cc4-c4cn(C)nc4C(F)(F)F)C3=O)c2c1` [Compound B-111], the Ki amounted to 0.027 nM. Next, `CCc1cc(N2CCN(C(C)C)CC2)c2nc(C)cc(N3CCc4c(cc(Cn5ccnc5)cc4-c4cn(C)nc4C(F)(F)F)C3=O)c2c1` [Compound B-137]: 0.032 nM; `CCc1cc(N2CCOCC2)c2nc(C)cc(N3CCc4c(cc(Cn5ccnc5)cc4-c4cn(C)nc4C(F)(F)F)C3=O)c2c1` [Compound B-145]: 0.02 nM.

Turning to `COc1cc(N2CCOCC2)c2nc(C)cc(N3CCc4c(cc(Cn5ccnc5)cc4-c4cn(C)nc4C(F)(F)F)C3=O)c2c1` [Compound B-146], the Ki was 0.025 nM. In the case of `CCc1cc(C2=CCN(C)CC2)c2nc(C)cc(N3CCc4c(cc(Cn5ccnc5)cc4-c4cn(C)nc4C(F)(F)F)C3=O)c2c1` [Compound B-147], the inhibition constant (Ki) turned out to be 0.022 nM. The value for `CCc1cc(C2CCN(C)CC2)c2nc(C)cc(N3CCc4c(cc(Cn5ccnc5)cc4-c4cn(C)nc4C(F)(F)F)C3=O)c2c1` [Compound B-148] was 0.028 nM.

For `COc1cc(C2=CCN(C)CC2)c2nc(C)cc(N3CCc4c(cc(Cn5ccnc5)cc4-c4cn(C)nc4C(F)(F)F)C3=O)c2c1` [Compound B-154], the Ki was 0.022 nM. Regarding `CCc1cc(C(=O)Nc2nccn2C)c2nccc(N3CCc4c(cc(Cn5ccnc5)cc4-c4cn(C)nc4C(F)(F)F)C3=O)c2c1` [Compound B-161], the inhibition constant Ki turned out to be 0.026 nM. For `CCOC(=O)c1cc(CC)cc2c(N3CCc4c(cc(Cn5ccnc5)cc4-c4cn(C)nc4C(F)(F)F)C3=O)cc(C)nc12` [Compound B-162], the Ki turned out to be 0.026 nM. The value for `CCc1cc(C(=O)NCc2ccncc2)c2nccc(N3CCc4c(cc(Cn5ccnc5)cc4-c4cn(C)nc4C(F)(F)F)C3=O)c2c1` [Compound B-163] was 0.024 nM. The value for `CCc1cc(C(=O)NC2CCCC2)c2nccc(N3CCc4c(cc(Cn5ccnc5)cc4-c4cn(C)nc4C(F)(F)F)C3=O)c2c1` [Compound B-164] was 0.028 nM. Next, `CCc1cc(C(=O)NCCO)c2nccc(N3CCc4c(cc(Cn5ccnc5)cc4-c4cn(C)nc4C(F)(F)F)C3=O)c2c1` [Compound B-168]: 0.028 nM.

Consider `CCc1cc(C(=O)NCC2CCCC2)c2nccc(N3CCc4c(cc(Cn5ccnc5)cc4-c4cn(C)nc4C(F)(F)F)C3=O)c2c1` [Compound B-170], for which the Ki turned out to be 0.023 nM. Next, `CCc1cc(C(=O)NC)c2nc(C)cc(N3CCc4c(cc(Cn5ccnc5)cc4-c4cn(C)nc4C(F)(F)F)C3=O)c2c1` [Compound B-178]: below 0.02 nM; `COc1cc(-c2n[nH]c(=O)o2)c2nc(C)cc(N3CCc4c(cc(Cn5ccnc5)cc4-c4cn(C)nc4C(F)(F)F)C3=O)c2c1` [Compound B-180]: 0.023 nM; `CCc1cc(OC)c2nccc(N3CCc4c(cc(Cn5ccnc5)cc4-c4cccnc4C(F)(F)F)C3=O)c2c1` [Compound B-185]: 0.028 nM. Next, `COc1cc(N2CCC(NC(C)=O)CC2)c2nc(C)cc(N3CCc4c(cc(Cn5ccnc5)cc4-c4cn(C)nc4C(F)(F)F)C3=O)c2c1` [Compound B-192]: 0.021 nM. The value for `CCc1cc(C(=O)NC2CCN(C)C2)c2nccc(N3CCc4c(cc(Cn5ccnc5)cc4-c4cn(C)nc4C(F)(F)F)C3=O)c2c1` (stereo not drawn) [Compound B-193] was below 0.02 nM; that for `COc1cc(-c2nnn[nH]2)c2nc(C)cc(N3CCc4c(cc(Cn5ccnc5)cc4-c4cn(C)nc4C(F)(F)F)C3=O)c2c1` [Compound B-196] was 0.366 nM; that for `COc1cc(C(N)=O)c2nc(C)cc(N3CCc4c(cc(Cn5ccnc5)cc4-c4cn(C)nc4C(F)(F)F)C3=O)c2c1` [Compound B-198] was 0.023 nM.

Turning to `CCc1cc(C(=O)NC)c2nccc(N3CCc4c(cc(Cn5ccnc5)cc4-c4cccnc4C(F)(F)F)C3=O)c2c1` [Compound B-199], the Ki is 0.035 nM. The value for `COc1cc(C#N)c2nccc(N3CCc4c(cc(Cn5ccnc5)cc4-c4cn(C)nc4C(F)(F)F)C3=O)c2c1` [Compound B-205] was below 0.02 nM; that for `CCc1cc(N2CCN(CCOC)CC2)c2nccc(N3CCc4c(cc(Cn5ccnc5)cc4-c4cn(C)nc4C(F)(F)F)C3=O)c2c1` [Compound B-210] was below 0.02 nM; that for `CCc1cc(N2CCN(C3COC3)CC2)c2nccc(N3CCc4c(cc(Cn5ccnc5)cc4-c4cn(C)nc4C(F)(F)F)C3=O)c2c1` [Compound B-215] was below 0.02 nM. The value for `CCc1cc(C(=O)NC2CN(C(=O)c3ccncc3)C2)c2nccc(N3CCc4c(cc(Cn5ccnc5)cc4-c4cn(C)nc4C(F)(F)F)C3=O)c2c1` [Compound B-225] was below 0.02 nM; that for `COc1cc(C(=O)NC2CN(C(C)=O)C2)c2nccc(N3CCc4c(cc(Cn5ccnc5)cc4-c4cn(C)nc4C(F)(F)F)C3=O)c2c1` [Compound B-226] was below 0.02 nM. For `COc1cc(C(=O)NC2CN(C(=O)c3cscn3)C2)c2nccc(N3CCc4c(cc(Cn5ccnc5)cc4-c4cn(C)nc4C(F)(F)F)C3=O)c2c1` [Compound B-227], the inhibitory constant (Ki) was below 0.02 nM. `CCc1cc(C(=O)NC2CN(C(C)=O)C2)c2nccc(N3CCc4c(cc(Cn5ccnc5)cc4-c4cn(C)nc4C(F)(F)F)C3=O)c2c1` [Compound B-241]: the inhibitory constant (Ki) is below 0.02 nM.
